Measurements from patent US20090314217A1, “APPARATUS AND METHOD FOR TREATING NON-HUMAN MAMMALS” (Under The Boardwalk Properties 8 (Proprietary) Limited, priority 2006, published 2009).
Like-named read-outs stand apart in the source and are kept apart here.

Experiments:
[1] = Blood oxygen tests immediately before and after transdermal ozone therapy (Table 2); type: in vivo, horse; conditions: for PO2 / SO2: post-treat (immediately after therapy); for K+ blood concentration / Na+ blood concentration: post-treat; for K+ blood concentration: normal range 5.3-3.0; for Na+ blood concentration: normal range 150.0-133.0
Experimental: Blood tests were also conducted for three horses to determine when transdermal ozone therapy should be provided. The horses were Shamon, Pauli and Sinbad. The blood tests were conducted immediately before transdermal ozone therapy and immediately thereafter. For the horse Shamon, blood tests were also conducted 12 hours and 24 hours after transdermal ozone therapy.

O=[O+][O-] [ozone]
PO2 ([1]; horse Pauli, pre-treat 39.30): 49.20 mmHg
SO2 ([1]; horse Pauli, pre-treat 80.30): 87.10%
K+ blood concentration ([1]; horse Pauli, pre-treat 3.73): 4.37 mmol/L
Na+ blood concentration ([1]; horse Pauli, pre-treat 143.00): 144.30 mmol/L
PO2 ([1]; horse Shamon, pre-treat 40.00): 52.70 mmHg
SO2 ([1]; horse Shamon, pre-treat 74.60): 90.50%
K+ blood concentration ([1]; horse Shamon, pre-treat 3.41): 4.09 mmol/L
Na+ blood concentration ([1]; horse Shamon, pre-treat 136.00): 148.30 mmol/L
PO2 ([1]; horse Sinbad, pre-treat 35.90): 48.00 mmHg
SO2 ([1]; horse Sinbad, pre-treat 70.60): 86.40%
K+ blood concentration ([1]; horse Sinbad, pre-treat 3.49): 3.04 mmol/L
Na+ blood concentration ([1]; horse Sinbad, pre-treat 147.40): 150.20 mmol/L
dehydration effect of transdermal ozone therapy ([1]; horses Shamon, Pauli, Sinbad): no dehydration effect
Na+, K+ and Cl- blood concentrations versus normal ranges ([1]; horses Shamon, Pauli, Sinbad, before and after therapy): remained within normal ranges
discomfort during the treatment (five horses, during treatment): none of the horses appeared to be uncomfortable
respiration of the horses during treatment (five horses, during treatment): increased
motion marks in the rest of the ride (horse Moniq, after treatment on day 1 and day 2, motion 1 throughout day 1): no motion marks
muscle spasms found by physiotherapist (horse Moniq, day 2 and day 3 of race, lumbar spasms confirmed on day 1 before treatment): no muscle spasms
creatine kinase (horse Moniq, treated on day 1 and day 2 of race, lowered from 3873): 706
rider's report on second and third days of the race (horse Ophelia, dehydrated and fatigued on day 1, treated after first and second day): felt very strong and consistent
performance on third day of the race (horse Shamon, severe fatigue by day 2, treated in the afternoon of day 2, finished fifteenth): rode very well
CK and AST levels (horses that presented symptoms of tying-up): marked decrease
occurrence of muscle spasms (horses treated transdermally with ozone): significantly reduced
energy levels and stamina (horses with general fatigue from constant hard work and competition): marked improvement
motion marks or stiffness during the race (mare Pauli, pre-treatments before the race, history of gluteal muscle spasms and tying up, finished fourteenth): no motion marks or stiffness
owner's report on second and third days of the race (mare Viola, treated on first and second day): felt much stronger and looser
aspertine amino transferase (mare Viola, treated on first and second day, lowered from more than 2000): 1814 U/L
creatine kinase (mare Viola, tying up on day 1, treated on first and second day, lowered from 5896): 1599 IU/K
average heart-rate during treatment (non-accustomed horses, enclosure 42-45 °C, oxygen flow 1 l/min to ozonator): 42 beats per minute
muscle stiffness caused by long periods of intense exercise (preliminary study on endurance horses): benefit to reduce muscle stiffness
